Experiments:
Experiment in all cases: relative viability (nuclei count vs DMSO), 5 days (fraction); higher = more cells survive
BEN = system: BEN
In short: (§1)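 Five library-drug doses in √10 steps were combined with a fixed anchor-drug dose, or a single drug was given alone, by pin tool to lung cancer cell lines in 1536-well plates the day after seeding. Nuclei were stained and counted after 5 days. Relative viability is the nuclei count in treated wells over that in vehicle wells, taken as the median of duplicate plates.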

CAL-12T = system: CAL-12T
In short: as §1

COR-L 105 = system: COR-L 105
In short: as §1

COR-L23 = system: COR-L23
In short: as §1

HARA = system: HARA
In short: as §1

HCC-15 = system: HCC-15
In short: as §1

HCC-366 = system: HCC-366
In short: as §1

HCC-827 = system: HCC-827
In short: as §1

HOP-62 = system: HOP-62
In short: as §1

LC-2-ad = system: LC-2-ad
In short: as §1

LCLC-97TM1 = system: LCLC-97TM1
In short: as §1

LU99A = system: LU99A
In short: as §1

LXF-289 = system: LXF-289
In short: as §1

NCI-H1993 = system: NCI-H1993
In short: as §1

NCI-H2009 = system: NCI-H2009
In short: as §1

NCI-H2087 = system: NCI-H2087
In short: as §1

NCI-H2126 = system: NCI-H2126
In short: as §1

NCI-H2170 = system: NCI-H2170
In short: as §1

NCI-H727 = system: NCI-H727
In short: as §1

PC-14 = system: PC-14
In short: as §1

PC-3 [JPC-3] = system: PC-3 [JPC-3]
In short: as §1

SK-MES-1 = system: SK-MES-1
In short: as §1

## O=c1[nH]c2ccccc2n1C1CCN(CCCC(c2ccc(F)cc2)c2ccc(F)cc2)CC1 [Pimozide] + COc1cc2c(Oc3ccc(NC(=O)C4(C(=O)Nc5ccc(F)cc5)CC4)cc3F)ccnc2cc1OCCCN1CCOCC1 [Foretinib] (partner 0.25 µM)
BEN; first compound 0.08 µM
  relative viability: 0.624
BEN; first compound 0.253 µM
  relative viability: 0.768
BEN; first compound 0.8 µM
  relative viability: 0.618
BEN; first compound 2.53 µM
  relative viability: 0.581
BEN; first compound 8 µM
  relative viability: 0.783
CAL-12T; first compound 0.08 µM
  relative viability: 0.979
CAL-12T; first compound 0.253 µM
  relative viability: 1.17
CAL-12T; first compound 0.8 µM
  relative viability: 1.11
CAL-12T; first compound 2.53 µM
  relative viability: 0.928
CAL-12T; first compound 8 µM
  relative viability: 0.96
COR-L 105; first compound 0.253 µM
  relative viability: 1.01
COR-L 105; first compound 0.8 µM
  relative viability: 0.99
COR-L 105; first compound 2.53 µM
  relative viability: 0.876
COR-L 105; first compound 8 µM
  relative viability: 0.779
COR-L23; first compound 0.08 µM
  relative viability: 1.01
COR-L23; first compound 0.253 µM
  relative viability: 0.951
COR-L23; first compound 0.8 µM
  relative viability: 0.909
COR-L23; first compound 2.53 µM
  relative viability: 1.05
COR-L23; first compound 8 µM
  relative viability: 0.905
HARA; first compound 0.253 µM
  relative viability: 0.874
HARA; first compound 0.8 µM
  relative viability: 0.873
HARA; first compound 2.53 µM
  relative viability: 0.733
HARA; first compound 8 µM
  relative viability: 0.766
HCC-15; first compound 0.08 µM
  relative viability: 1.09
HCC-15; first compound 0.253 µM
  relative viability: 1.01
HCC-15; first compound 0.8 µM
  relative viability: 0.868
HCC-15; first compound 2.53 µM
  relative viability: 0.964
HCC-15; first compound 8 µM
  relative viability: 0.94
HCC-366; first compound 0.08 µM
  relative viability: 0.862
HCC-366; first compound 0.253 µM
  relative viability: 0.952
HCC-366; first compound 0.8 µM
  relative viability: 0.866
HCC-366; first compound 2.53 µM
  relative viability: 0.925
HCC-366; first compound 8 µM
  relative viability: 0.859
HCC-827; first compound 0.253 µM
  relative viability: 1.01
HCC-827; first compound 0.8 µM
  relative viability: 0.915
HCC-827; first compound 2.53 µM
  relative viability: 0.967
HCC-827; first compound 8 µM
  relative viability: 0.904
HOP-62; first compound 0.08 µM
  relative viability: 1.05
HOP-62; first compound 0.253 µM
  relative viability: 1.14
HOP-62; first compound 2.53 µM
  relative viability: 1.04
HOP-62; first compound 8 µM
  relative viability: 1.03
LC-2-ad; first compound 0.08 µM
  relative viability: 0.911
LC-2-ad; first compound 0.253 µM
  relative viability: 0.928
LC-2-ad; first compound 0.8 µM
  relative viability: 0.909
LC-2-ad; first compound 2.53 µM
  relative viability: 0.901
LC-2-ad; first compound 8 µM
  relative viability: 0.868
LCLC-97TM1; first compound 0.08 µM
  relative viability: 0.926
LCLC-97TM1; first compound 0.253 µM
  relative viability: 1.03
LCLC-97TM1; first compound 0.8 µM
  relative viability: 0.823
LCLC-97TM1; first compound 2.53 µM
  relative viability: 0.852
LCLC-97TM1; first compound 8 µM
  relative viability: 0.789
LU99A; first compound 0.08 µM
  relative viability: 0.872
LU99A; first compound 0.253 µM
  relative viability: 0.756
LU99A; first compound 0.8 µM
  relative viability: 0.922
LU99A; first compound 2.53 µM
  relative viability: 0.84
LU99A; first compound 8 µM
  relative viability: 0.922
LXF-289; first compound 0.08 µM
  relative viability: 0.989
LXF-289; first compound 0.253 µM
  relative viability: 0.929
LXF-289; first compound 0.8 µM
  relative viability: 0.944
LXF-289; first compound 2.53 µM
  relative viability: 0.892
LXF-289; first compound 8 µM
  relative viability: 0.934
NCI-H1993; first compound 0.08 µM
  relative viability: 0.705
NCI-H1993; first compound 0.253 µM
  relative viability: 0.777
NCI-H1993; first compound 0.8 µM
  relative viability: 0.727
NCI-H1993; first compound 2.53 µM
  relative viability: 0.788
NCI-H1993; first compound 8 µM
  relative viability: 0.851
NCI-H2009; first compound 0.08 µM
  relative viability: 1.24
NCI-H2009; first compound 0.253 µM
  relative viability: 1.12
NCI-H2009; first compound 0.8 µM
  relative viability: 1.19
NCI-H2009; first compound 2.53 µM
  relative viability: 1.09
NCI-H2009; first compound 8 µM
  relative viability: 1.13
NCI-H2087; first compound 0.08 µM
  relative viability: 1.21
NCI-H2087; first compound 0.253 µM
  relative viability: 0.984
NCI-H2087; first compound 2.53 µM
  relative viability: 1.17
NCI-H2087; first compound 8 µM
  relative viability: 1.09
NCI-H2126; first compound 0.08 µM
  relative viability: 1.39
NCI-H2126; first compound 0.253 µM
  relative viability: 1.14
NCI-H2126; first compound 0.8 µM
  relative viability: 1.06
NCI-H2126; first compound 2.53 µM
  relative viability: 1.23
NCI-H2126; first compound 8 µM
  relative viability: 1.13
NCI-H2170; first compound 0.08 µM
  relative viability: 1.04
NCI-H2170; first compound 0.253 µM
  relative viability: 1.03
NCI-H2170; first compound 0.8 µM
  relative viability: 0.985
NCI-H2170; first compound 2.53 µM
  relative viability: 0.99
NCI-H2170; first compound 8 µM
  relative viability: 1.06
NCI-H727; first compound 0.08 µM
  relative viability: 0.679
NCI-H727; first compound 0.253 µM
  relative viability: 0.87
NCI-H727; first compound 0.8 µM
  relative viability: 0.798
NCI-H727; first compound 2.53 µM
  relative viability: 0.722
NCI-H727; first compound 8 µM
  relative viability: 0.782
PC-14; first compound 0.253 µM
  relative viability: 1
PC-14; first compound 0.8 µM
  relative viability: 0.943
PC-14; first compound 2.53 µM
  relative viability: 0.965
PC-14; first compound 8 µM
  relative viability: 1.02
PC-3 [JPC-3]; first compound 0.08 µM
  relative viability: 0.839
PC-3 [JPC-3]; first compound 0.253 µM
  relative viability: 1.03
PC-3 [JPC-3]; first compound 0.8 µM
  relative viability: 0.952
PC-3 [JPC-3]; first compound 2.53 µM
  relative viability: 0.931
PC-3 [JPC-3]; first compound 8 µM
  relative viability: 0.86
SK-MES-1; first compound 0.08 µM
  relative viability: 0.614
SK-MES-1; first compound 0.253 µM
  relative viability: 0.955
SK-MES-1; first compound 0.8 µM
  relative viability: 1.06
SK-MES-1; first compound 2.53 µM
  relative viability: 1.06
SK-MES-1; first compound 8 µM
  relative viability: 0.94

Reference: the supplement of paper PMC10307832
